Results published in PubChem BioAssay AID330 (DTP/NCI, 2004).
Toxic doses and inconclusive results are not listed. Rule for the calls: active = survival T/C of 150% or more; inactive = T/C below 125% in these data.

Tested on: P388 leukemia ip, CD2F1 mice, survival T/C
Experiment: NCI In Vivo Anticancer Drug Screen. Data for tumor model P388 Leukemia (intraperitoneal) in CD2F1 (CDF1) mice
Conditions: endpoint: median survival time, higher = longer survival
Method in brief: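 Mice carrying the transplanted tumor received test compound or vehicle. Survival was recorded in each group, and the value is the treated-group measurement divided by that of the vehicle-treated control group.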

Measured: T/C

CC1=CC(=O)C2(C)C1=CC(=O)C13COC4OC(CC1C4=O)C(O)C23 (stereo not drawn)
inactive: dose: 1.0 mg/kg/injection, schedule: Q01DX009 (ip), vehicle: Klucel (hydroxypropylcellulose) (HPC) 97 % of control | dose: 2.0 mg/kg/injection, schedule: Q01DX009 (ip), vehicle: Klucel (hydroxypropylcellulose) (HPC) 94 % of control | dose: 4.0 mg/kg/injection, schedule: Q01DX009 (ip), vehicle: Klucel (hydroxypropylcellulose) (HPC) 98 % of control | dose: 8.0 mg/kg/injection, schedule: Q01DX009 (ip), vehicle: Klucel (hydroxypropylcellulose) (HPC) 102 % of control

COC(=O)c1ccc(N2C(=O)C=CC2=O)cc1
inactive: dose: 0.75 mg/kg/injection, schedule: Q01DX009 (ip), vehicle: saline with Tween-80 100 % of control | dose: 1.5 mg/kg/injection, schedule: Q01DX009 (ip), vehicle: saline with Tween-80 100 % of control | dose: 3.0 mg/kg/injection, schedule: Q01DX009 (ip), vehicle: saline with Tween-80 120 % of control

CCN(CC)CCCCNc1ccc(NCCCCN(CC)CC)c2c1C(=O)c1ccccc1C2=O
inactive: dose: 3.12 mg/kg/injection, schedule: Q01DX009 (ip), vehicle: saline 90 % of control | dose: 6.25 mg/kg/injection, schedule: Q01DX009 (ip), vehicle: saline 90 % of control | dose: 12.5 mg/kg/injection, schedule: Q01DX009 (ip), vehicle: saline with Tween-80 118 % of control | dose: 12.5 mg/kg/injection, schedule: Q01DX009 (ip), vehicle: saline 97 % of control | dose: 25.0 mg/kg/injection, schedule: Q01DX009 (ip), vehicle: saline with Tween-80 115 % of control | dose: 50.0 mg/kg/injection, schedule: Q01DX009 (ip), vehicle: saline with Tween-80 120 % of control | dose: 50.0 mg/kg/injection, schedule: Q01DX009 (ip), vehicle: saline 91 % of control | dose: 100.0 mg/kg/injection, schedule: Q01DX009 (ip), vehicle: saline 100 % of control

CCCCCCCCC1(O)OC(=O)C(C)=C1C (stereo not drawn)
inactive: dose: 12.5 mg/kg/injection, schedule: Q04DX003 (ip), vehicle: saline with Tween-80 100 % of control | dose: 25.0 mg/kg/injection, schedule: Q04DX003 (ip), vehicle: saline with Tween-80 100 % of control | dose: 50.0 mg/kg/injection, schedule: Q04DX003 (ip), vehicle: saline with Tween-80 103 % of control
